How the values were obtained:
[1] = test system: keratinocytes and dermal fibroblasts; assay: In vitro scratch wound-healing assay; assay type: cell-based, human and mouse
Procedure: (§1) A confluent monolayer of control and Agrin depleted cells in a 6-well plate was subjected to a unidirectional scratch using a 20 μl pipette tip. This was followed by washing with 1×PBS at room temperature and incubation in complete culture media at 37° C. and 5% CO2 with or without sAgrin used as indicated. Phase contrast images of the wound area were taken periodically at the indicated time-points. For some wound-healing migration assays, keratinocytes were cultured on either soft or stiff substrates within a stencil barrier (Nalge Nunc., Inc) for 18 h. Upon removal of the barrier, the cells were allowed to migrate and imaged using an Axiovert 200 inverted microscope at indicated time-points.

mouse skin explants = assay: Mouse skin explant assay (keratinocyte outgrowth); assay type: cell-based; conditions: soft matrix with 20 μg/ml sAgrin; MMP408 5 nM, 5 days
Procedure: Three days old ICR strain mouse pups were sacrificed and the hind skin on either side of the midline in the shoulder region was washed in 70% ethanol and excised using scalpel. The excised skin was washed in 70% ethanol and placed (dermis side down) on the pre-made gel substrates of defined stiffness, either in the absence or presence of 20 μg/ml sAgrin. The explants were allowed to adhere for 2 h before adding the keratinocyte culture medium (DMEM) containing 300 μM Ca^2+ as described previously^31. The keratinocyte outgrowth and the skin tissues regularly imaged under an Axiovert-200 inverted microscope and were subsequently fixed in 4% paraformaldehyde and immunostained for Keratin 17 antibody.
Tissue culture plates were coated with Col-T-gel (Fischer Scientific) of stiffness ranging from 0.8 KPa (soft) to 30 KPa (stiff) as per manufacturer recommendations and allowed to solidify for 40 min at 37° C. inside tissue culture incubators. Some experiments were performed with cells seeded on the poly-hydrogel plates of defined stiffness: 0.2 kPa and 16 kPa soft and hard polyhydrogels, respectively (CytoSoft, Advanced Biomatrix, Inc.,). The determination of stiffness of silicone substrates were done by the manufacturer as per previously published protocols. For certain experiments, indicated amounts of sAgrin was incorporated into the 0.8 KPa collagen gels before gelation process. Upon gelation, trypsinized cells or excised mouse skin explants were plated onto the gels of different stiffness either alone or containing sAgrin. The cells/tissues were incubated under standard culture condition with 500 μl recommended culture medium for the indicated days. The crossbow shaped micropatterns with fibronectin coated islands were generated by microlithography on a 19.5×19.5 mm coverslide from Cytoo, Inc., France. The micropatterns had surface areas of 800μ^2 or 1600μ^2, respectively. Fifty thousand cells after initial siRNA treatment was placed on the micropatterns for 4-6 h before processing them for immunofluorescence. […]

[2] = test system: phosphorylated myosin light chain (pMLC); assay: Actomyosin cables / pMLC activation after wound scratch; assay type: cell-based, human; conditions: 10 μm Blebbistatin 2 h before scratch
Procedure: Indicated cells post-manipulation were washed twice with cold Phosphate buffered saline (PBS) and lysed with cold 1% NP-40 lysis buffer supplemented with 1× protease inhibitor cocktail (Roche Applied Biosciences) for 15 mins at 4° C. The cell lysate was centrifuged at 13,000 rpm for 15 min. This was followed by protein estimation using Bradford reagent. Subsequently, […] of total protein was mixed with an equal volume of 2× Laemmli sample buffer and heated at 95° C. for 5 mins. This was followed by resolution with SDS-PAGE gel. The resolved proteins were transferred onto nitrocellulose membrane and blocked in 5% skimmed milk reconstituted in 1×PBS containing 0.1% Tween-20, and probed overnight with the respective primary antibody. The membrane was then washed with 1×PBS supplemented with 0.1% Tween-20: three times at 15 min intervals. This was followed by 1 h incubation in conjugated horseradish peroxidase HRP secondary antibody (Santa Cruz Biotechnology). Post-incubation, the blot was again washed three times as above and then overlaid with enhanced chemiluminescence (ECL) substrate (Pierce/Bio-Rad) and visualized on X-ray film by image processor or digitally by Chemidoc analyzer (Bio-Rad). The density of the various bands was quantified using the Image-J software.
Cells were cultured on eight-well chamber slides or coverslips over-night. Cells were then washed twice with PBS and fixed for 15 min with 4% paraformaldehyde. Subsequently, the cells were permeabilized for 15 min with 0.1% Triton X in Phosphate buffered saline containing 1 mM Ca^+2 and 1 mM Mg^+2 (PBSCM) at room temperature. The permeabilized cells were incubated with indicated antibodies in fluorescent dilution buffer (FDB) for 1-2 h at RT or overnight at 4° C., followed by 5 washes with PBSCM and incubation with secondary antibody; Alexa Fluor (Thermo Fisher Scientific) for 1 h at RT. Slides were again washed five times with PBSCM and mounted with Vectashield medium containing DAPI. The stained cells were then imaged by a Zeiss confocal microscope. The images were processed and analyzed by Zen blue software. Intensity measurements were acquired using tool selection parameter in image analysis within the Zen blue software.
as §1

pMLC = assay: Force transmission via ligand conjugated magnetic beads; assay type: cell-based, human; conditions: siAgrin cells
Procedure: The ligands were conjugated to 4.5 μm epoxide paramagnetic beads (Dynabeads M-450 Epoxy, Thermo Fisher Scientific) according to the manufacturer's manual. Briefly, the beads were washed twice in 0.1 M sodium phosphate buffer, pH 7.4. Subsequently. 8×10^7 beads were conjugated to 20 μg sAgrin, BSA and FN per in 0.1 M sodium phosphate buffer at pH 7.4 for 16-18 h at 4° C. with gentle rotation throughout. The degree of protein conjugation to the beads was verified by a reducing SDS-PAGE gel analysis using a subset of ligand conjugated beads. The remaining beads were washed and subsequently stored in 0.1% BSA-phosphate buffered saline (PBS) pH 7.4 at 4° C. They were subsequently suspended in medium and added on the cells for 30 min at 37° C. After a brief wash with PBS to remove excess non-adherent beads, the cells were placed under a permanent neodymium magnet (J Magnetics, USA) at a distance of 6 mm apart for another 30 min that allowed a vertical tensile force in the magnitudes of ˜200 pN on the beads. The cells were then fixed in 4% paraformaldehyde, permeabilized and processed for immunofluorescence.

Molecule: COC(=O)Nc1ccc2oc3cc(S(=O)(=O)N[C@H](C(=O)O)C(C)C)ccc3c2c1 [MMP408, reference compound]
- migration of sAgrin induced K17 expressing keratinocytes ([1]; 5 nM MMP408, soft substrates and normal culture conditions): blunted the migration of sAgrin induced K17 expressing keratinocytes
- sAgrin induced K17 expressing migratory outgrowth (mouse skin explants): abruptly abolished

Molecule: Cc1ccc2c(c1)C(=O)C1(O)CCN(c3ccccc3)C1=N2 (centres unmarked) [blebbistatin, reference compound]
- sAgrin induced migration post-wound injury ([1]; 10 μm Blebbistatin, 18 h post-wounding): abolished the sAgrin induced migration
- sAgrin induced actomyosin cables [2]: abolished

B1: syndecan-4: Syndecan-4 conjugated to magnetic beads (protein, UniProt P31431 19-198, looked up)
Syndecan-4: ESIRETEVIDPQDLLEGRYFSGALPDDEDVVGPGQESDDFELSGSGDLDDLEDSMIGPEVVHPLVPLDNHIPERAGSGSQVPTEPKKLEENEVIPKRISPVEESEDVSNKVSMSSTVQGSNIFERTEVLAALIVGGIVGILFAVFLILLLMYRMKKKDEGSYDLGKKPIYKKAPTNEFYA
modifications: conjugated to magnetic beads
notes: Syndecan-4 conjugated to magnetic beads
- rescue of reduced pMLC in Agrin depleted cells by force through ligand beads (pMLC): rather insufficient to rescue myosin mechanotension

— US20230257435A1, “Wound Healing Composition and Uses Thereof” (AGENCY FOR SCIENCE, TECHNOLOGY AND RESEARCH, priority 2020, published 2023)
